Test results: US5420289A, “Substituted indole-, indene-, pyranoindole- and tetrahydrocarbazole-alkanoic acid derivatives as inhibitors of PLA2 and lipoxygenase” (American Home Products Corporation, priority 1993, dated 1995)
pIC50: −log10 of the molar value. Counter-ions that a name gives are not always drawn.

Key:
[1] = target: T1, human synovial fluid PLA2 (Homo sapiens, UniProt P14555); experiment: in vitro isolated phospholipase A2 assay, human synovial fluid PLA2 (Example 74); assay type: biochemical; set-up: inhibition / % Inhibition, HSF (human synovial fluid): dose or concentration left out as unconfirmed; settings: for inhibition: read-out: % Inhibition, HSF (human synovial fluid); for pIC50: Table III, read-out: IC50 HSF (human synovial fluid)
T1 sequence (P14555 21-144): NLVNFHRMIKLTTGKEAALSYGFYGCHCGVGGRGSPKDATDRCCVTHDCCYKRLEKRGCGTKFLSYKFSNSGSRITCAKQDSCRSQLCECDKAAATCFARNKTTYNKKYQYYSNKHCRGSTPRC
Procedure: The compounds of the invention are tested in an in vitro isolated phospholipase A2 assay to determine the ability of the test compounds to inhibit the release of arachidonic acid from an arachidonic acid-containing substrate by the action of phospholipase A2 enzyme from human and non-human sources.
(§1) This assay is carried out as follows:
Into a 15 mL polypropylene tube are added the following:
^6 Two human PLA2 enzymes are used:
b) Purified human synovial fluid.
Incubate the 100mL reaction mixture for 10 minutes at 37° C. in a shaking water bath. The reaction is terminated by the addition of 2 mL tetrahydrofuran, followed by vortexlag. NH2 columns (100 mg/mL--Analytichem International) are conditioned with 0.5 mL tetrahydrofuran followed by 0.5 mL tetrahydrofuran/water (2 mL:0.1 mL, v/v).
The sample is loaded onto the columns and slowly drawn through them. The hydrolyzed arachidonic acid retained in the columns is eluted therefrom with 1 mL tetrahydrofuran/glacial acetic acid (2%). The arachidonic acid is transferred to scintillation vials and quantitated by b-counting analysis. A "total counts" sample is prepared by pipetting […] ^3 H-arachidonate E. coli directly into a scintillation vial to which is added 1 mL tetrahydrofuran. 10 mL aquasol (scintillation cocktail) is added to all samples. [formula]

[2] = test system: 5-lipoxygenase in human whole blood; experiment: inhibition of 5-lipoxygenase in human whole blood (Example 79); assay type: cell-based; settings: for pIC50: human whole blood, read-out: IC50 (inhibition of LTB4)
Procedure: The assay of this Example measures the ability of the compounds tested to inhibit 5-lipoxygenase in human whole blood.
as §1
Blood is obtained in 50-100 ml quantities from male donors. White blood cell counts and differentials are made. Two ml of blood are placed in a 15 ml polypropylene test tube. Compounds are solubilized in dimethylsulfoxide and diluted 1:10 in 10% bovine serum albumin in phosphate buffered saline, pH 7.4 resulting in a final dimethylsulfoxide concentration of 0.1% in the blood. Then, compounds are added to the blood in a shaking water bath at 37° C. for 10 minutes prior to the addition of […] calcium ionophore (A23187; Sigma). After ionophore administration, whole blood samples are mixed and incubated for 20 minutes at 37° C. in a shaking water bath. Incubation is terminated by placing samples in an ice bath and immediately adding ethylene glycol-bis-(b-aminoethyl ether)-N,N,N',N'-tetraacetic acid (10 mM). Samples are mixed and centrifuged at 1200 × g for 15 minutes at 4° C. Preparation of samples for evaluation by RIA or ELISA is carried out by the following protocol. Plasma is removed from sample tubes, placed in 15 ml polypropylene test tubes containing 8 ml methanol, and then vortexed to precipitate protein. Samples are stored at -70° C. overnight. The next day, samples are centrifuged at 200 × g for 15 minutes at 4° C. to pellet the precipitate. Samples are dried in a Savant speed vac concentrator, reconstituted to original volume with ice cold RIA or ELISA buffer, and stored at -70° C. until assayed. The assay for eicosanoids (LTB4, T×B2, and PGE2) is performed as described by the manufacturer of the [^3 H]-RIA kit or ELISA kit (LTB4 -Amersham, TxB2 and PGE2 - Caymen Chemical).
The total eicosanoid level in 2 ml of blood is calculated and reported as ng/10^6 neutrophils. […] Drug effects are expressed as percent change from control values.
Compounds tested in vitro are solubilized in dimethylsulfoxide and diluted 1:10 in 10% bovine serum albumin in phosphate buffer saline resulting in a final dimethylsulfoxide concentration of 0.1% i n the blood.

inhibition [1] [%]	Molecule	% Inhibition of LTB4 ([2]; 25 μM) [%]	further results
49	Cc1c(CC(=O)O)c2cc(OCc3csc(-c4ccccc4)n3)ccc2n1Cc1ccc2ccccc2c1 [Example 67, 5-[(2-Phenyl-4-thiazolyl)methoxy]-1-(2-nanhthalenylmethyl)-2-methyl-1H-indole-3-acetic acid]	30	–
39	Cc1c(CC(=O)O)c2cc(OCc3nc4ccccc4s3)ccc2n1Cc1ccc(Cl)cc1 [Example 37, 1-[(4-Chlorophenyl)methyl]-2-methyl-5-(2-benzothiazolylmethoxy)-1H-indole-3-acetic acid]	–	–
6	CCOC(=O)Cc1c(C)n(Cc2cccc(OC)c2)c2ccc(OCc3csc(-c4ccccc4)n3)cc12 [Example 59, 5-[(2-Phenyl-4-thiazolyl)methoxy]-1-[[(3-methoxy)phenyl]methyl]-2-methyl-1H-indole-3-acetic acid ethyl ester]	–	–
46	Cc1c(CC(=O)O)c2cc(OCc3ccccn3)ccc2n1Cc1ccc(Cl)cc1 [Example 36, 1-[(4-Chlorophenyl)methyl]-2-methyl-5-(2-pyridinylmethoxy)-1H-indole-3-acetic acid]	–	–
–	CC(c1cc2ccccc2s1)N(O)C(N)=O (stereo not drawn) [Example A-64077, reference compound]	72	pIC50 [2]: 5.52
–	Cc1c(CC(=O)O)c2cc(OCc3ccc4ccccc4c3)ccc2n1Cc1ccc(Cl)cc1 [Example 34, 1-[(4-Chlorophenyl)methyl]-2-methyl-5-(2-naphthalenylmethoxy)-1H-indole-3-acetic acid]	–	pIC50 [1]: 4.47
46	Cc1c(CC(=O)O)c2cc(OCc3csc(-c4ccc(C(F)(F)F)cc4)n3)ccc2n1Cc1ccc(Cl)cc1 [Example 39, 1-[(4-Chlorophenyl)methyl]-2-methyl-5-[[2-(4-trifluoromethylphenyl)-4-thiazolyl]methoxy]-1H-indole-3-acetic acid]	–	–
28	Cc1c(CC(=O)O)c2cc(OCc3ccccc3)ccc2n1Cc1ccc(Cl)cc1 [Example 35, 1-[(4-Chlorophenyl)methyl]-2-methyl-5-(phenylmethoxy)-1H-indole-3-acetic acid]	–	pIC50 [1]: 4.28
–	Cc1c(CC(=O)N(C)O)c2cc(OCc3ccc4ccccc4n3)ccc2n1Cc1ccc(Cl)cc1 [Example 22, 1-[(4-Chlorophenyl)methyl]-2-methyl-N-(methyl)-N-(hydroxy)-5-(2-quinolinylmethoxy)-1H,indole-3-acetamide three quarters hydrate]	78	pIC50 [2]: 4.40
–	CC1=C(CC(=O)N(C)O)c2cc(F)ccc2C1=Cc1ccc(OCc2ccc3ccccc3n2)cc1 [Example 44, 5-Fluoro-N-hydroxy-N,2-dimethyl-1-[[4-(2-quinolinylmethoxy)penyl]methylene]-1H -indene-3-acetamide hydrochloride]	94	pIC50 [2]: 5.35
–	1-[(4-Chlorophenyl)methyl]-5-(2-quinolinylmethoxy)-1H-indole-3-acetic acid [Example 32]	–	% Inhibition, HSF (human synovial fluid) [1]: 36%
41	Cc1c(CC(=O)O)c2cc(OCc3ccc4ccccc4n3)ccc2n1Cc1ccc(OCc2ccc3ccccc3n2)cc1 [Example 28, 2-Methyl-5-(2-quinolinylmethoxy)-1-[[4-(2-quinolinylmethoxy)phenyl]methyl]-1H-indole-3-acetic acid hemihydrate]	–	–
45	Cc1c(CC(=O)O)c2cc(OCc3ccc4ccccc4n3)ccc2n1Cc1ccc(C(=O)O)cc1 [Example 27, 1-[(4-Carboxyphenyl)methyl]-2-methyl-5-(2-quinolinylmethoxy)-1H-indole-3-acetic acid]	–	–
31	Cc1c(CC(=O)O)c2cc(OCc3csc(-c4ccccc4)n3)ccc2n1Cc1ccc(Cl)cc1 [Example 38, 1-[(4-Chlorophenyl)methyl]-2-methyl-5-[(2-phenyl-4-thiazolyl)methoxy]-1H-indole-3-acetic acid]	–	–
1	CCOC(=O)Cc1c(C)n(Cc2ccc(SC)cc2)c2ccc(OCc3nc4ccccc4s3)cc12 [Example 53, 5-(2-Benzothiazolylmethoxy)-1-[[4-(methylthio)phenyl]methyl]-2-methyl-1H-indole-3-acetic acid ethyl ester]	80	–
38	O=C(O)Cc1cn(Cc2ccc(Cl)cc2)c2ccc(OCc3ccc4ccccc4n3)cc12 [Example 33, 1-[(4-Chlorophenyl)methyl]-5-(2-quinolinylmethoxy)-1H-indole-3-acetic acid]	–	–
43	CSc1ccc(Cn2c(C)c(CC(=O)O)c3cc(OCc4csc(-c5ccccc5)n4)ccc32)cc1 [Example 58, 5-[(2-Phenyl-4-thiazolyl)methoxy]-1-[[(4-methylthio)phenyl]methyl]-2-methyl-1H -indole-3-acetic acid]	–	–
–	CCOC(=O)Cc1c(C)n(Cc2ccc(C(C)(C)C)cc2)c2ccc(OCc3csc(-c4ccccc4)n3)cc12 [Example 61, 5-[(2-Phenyl-4-thiazolyl)methoxy]-1-[[4-(1,1-dimethylethyl)phenyl]methyl]-2-methyl-1H-indole-3-acetic acid ethyl ester]	5	–
–	Cc1c(CC(=O)N(C)O)c2cc(OCc3csc(-c4ccccc4)n3)ccc2n1Cc1ccccc1 [Example 57, N-hydroxy-5-[(2-phenyl-4-thiazolyl)methoxy]-1-(phenylmethyl)-N,2-dimethyl-1H-indole-3-acetamide]	–	pIC50 [2]: 4.36
–	Cc1c(CNC(=O)NO)c2cc(OCc3ccc4ccccc4n3)ccc2n1Cc1ccc(Cl)cc1 [Example 42, N-[[1-[(4-Chlorophenyl)methyl]-2-methyl-5-(2-quinolinylmethoxy)-1H-indol-3-yl]methyl]-N'-hydroxyurea]	89	pIC50 [2]: 5.25
–	CC(C)c1ccc2c(c1)c(SC(C)(C)C)c(CC(C)(C)C(=O)O)n2Cc1ccc(Cl)cc1 [L-663,536, reference compound]	–	% Inhibition of LTB4 ([2]; 3 μM): 96%
64	Cc1c(CC(=O)NS(=O)(=O)c2ccccc2)c2cc(OCc3ccc4ccccc4n3)ccc2n1Cc1ccc(Cl)cc1 [Example 23]	–	–
42	Cc1c(CC(=O)O)c2cc(OCc3csc(-c4ccccc4)n3)ccc2n1Cc1ccccc1 [Example 40, 1-[(Phenyl)methyl]-2-methyl-5-[(2-phenyl-4-thiazolyl)methoxy]-1H-indole-3-acetic acid]	–	–
